Assay results: PubChem BioAssay (NCI)
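All cell lines were grown in 96-well plates and treated with compound for 48 hours. TGI: total growth inhibition.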

Key:
Assay in all cases: NCI-60 cell line screen, 48 h
OVCAR-8 ovarian = test system: OVCAR-8 ovarian
HCT-116 colon = test system: HCT-116 colon
SNB-75 CNS = test system: SNB-75 CNS
KM12 colon = test system: KM12 colon
SF-539 CNS = test system: SF-539 CNS
CCRF-CEM leukemia = test system: CCRF-CEM leukemia
SK-MEL-5 melanoma = test system: SK-MEL-5 melanoma
HOP-92 NSCLC = test system: HOP-92 NSCLC
SW-620 colon = test system: SW-620 colon
UACC-257 melanoma = test system: UACC-257 melanoma
SK-MEL-28 melanoma = test system: SK-MEL-28 melanoma
K-562 leukemia = test system: K-562 leukemia
NCI-H23 lung = test system: NCI-H23 lung
A549 NSCLC = test system: A549 NSCLC
M19-MEL melanoma = test system: M19-MEL melanoma
TK-10 renal = test system: TK-10 renal
KM20L2 colon = test system: KM20L2 colon
M14 melanoma = test system: M14 melanoma
SF-268 CNS = test system: SF-268 CNS
HT29 colon = test system: HT29 colon
U251 CNS = test system: U251 CNS
SK-OV-3 ovarian = test system: SK-OV-3 ovarian
UACC-62 melanoma = test system: UACC-62 melanoma
DLD-1 colon = test system: DLD-1 colon
UO-31 renal = test system: UO-31 renal
HOP-18 NSCLC = test system: HOP-18 NSCLC
RPMI-8226 leukemia = test system: RPMI-8226 leukemia
OVCAR-3 ovarian = test system: OVCAR-3 ovarian
HOP-62 NSCLC = test system: HOP-62 NSCLC
MOLT-4 leukemia = test system: MOLT-4 leukemia
LXFL 529 NSCLC = test system: LXFL 529 NSCLC
OVCAR-5 ovarian = test system: OVCAR-5 ovarian
DMS 114 small cell lung = test system: DMS 114 small cell lung
RXF 393 renal = test system: RXF 393 renal
COLO 205 colon = test system: COLO 205 colon
786-0 renal = test system: 786-0 renal
HL-60(TB) leukemia = test system: HL-60(TB) leukemia
SN12C renal = test system: SN12C renal
NCI-H226 lung = test system: NCI-H226 lung
EKVX NSCLC = test system: EKVX NSCLC
RXF-631 renal = test system: RXF-631 renal
CAKI-1 renal = test system: CAKI-1 renal
ACHN renal = test system: ACHN renal
NCI-H522 lung = test system: NCI-H522 lung
A498 renal = test system: A498 renal
HCC-2998 colon = test system: HCC-2998 colon
LOX IMVI melanoma = test system: LOX IMVI melanoma
SK-MEL-2 melanoma = test system: SK-MEL-2 melanoma
IGROV1 ovarian = test system: IGROV1 ovarian
SR leukemia = test system: SR leukemia
MALME-3M melanoma = test system: MALME-3M melanoma
NCI-H460 lung = test system: NCI-H460 lung
SF-295 CNS = test system: SF-295 CNS
SNB-19 CNS = test system: SNB-19 CNS
SNB-78 CNS = test system: SNB-78 CNS
HCT-15 colon = test system: HCT-15 colon
OVCAR-4 ovarian = test system: OVCAR-4 ovarian
DMS 273 small cell lung = test system: DMS 273 small cell lung

Compound `COc1ccc(SS(=O)(=O)c2ccc(OC)cc2)cc1` has a TGI (OVCAR-8 ovarian) of 31.9 µM, a TGI (HCT-116 colon) of 30.3 µM and a TGI (SNB-75 CNS) of 45.5 µM. For the same compound, the TGI (KM12 colon) was 30.7 µM, the TGI (SF-539 CNS) was 34 µM and the TGI (CCRF-CEM leukemia) was 10.2 µM. The TGI (SK-MEL-5 melanoma) was 33 µM, the TGI (HOP-92 NSCLC) was 60.4 µM and the TGI (SW-620 colon) was 18.1 µM. The TGI (UACC-257 melanoma) was 49.4 µM, the TGI (SK-MEL-28 melanoma) was 40.1 µM and the TGI (K-562 leukemia) was 47 µM. It also gave a TGI (NCI-H23 lung) of 49.1 µM, a TGI (A549 NSCLC) of 69.2 µM and a TGI (M19-MEL melanoma) of 46.4 µM. It also gave a TGI (TK-10 renal) of 50.2 µM, a TGI (KM20L2 colon) of 38 µM and a TGI (M14 melanoma) of 41.6 µM. For the same compound, the TGI (SF-268 CNS) was 32.9 µM, the TGI (HT29 colon) was 64.1 µM and the TGI (U251 CNS) was 27.6 µM. The TGI (SK-OV-3 ovarian) was 69.4 µM, the TGI (UACC-62 melanoma) was 38.5 µM and the TGI (DLD-1 colon) was 52.3 µM. The TGI (UO-31 renal) was 27.2 µM, the TGI (HOP-18 NSCLC) was 48.3 µM and the TGI (RPMI-8226 leukemia) was 75.4 µM. For the same compound, the TGI (OVCAR-3 ovarian) was 33.8 µM, the TGI (HOP-62 NSCLC) was 50.9 µM and the TGI (MOLT-4 leukemia) was 47.8 µM. It also gave a TGI (LXFL 529 NSCLC) of 34.4 µM, a TGI (OVCAR-5 ovarian) of 76.4 µM and a TGI (DMS 114 small cell lung) of 30.6 µM. It also gave a TGI (RXF 393 renal) of 32.3 µM, a TGI (COLO 205 colon) of 33.2 µM and a TGI (786-0 renal) of 32.7 µM. The TGI (HL-60(TB) leukemia) was 7.81 µM, the TGI (SN12C renal) was 36.7 µM and the TGI (NCI-H226 lung) was 50.1 µM. It also gave a TGI (EKVX NSCLC) of 71.6 µM, a TGI (RXF-631 renal) greater than 100 µM and a TGI (CAKI-1 renal) of 43.3 µM. The TGI (ACHN renal) was 33.1 µM, the TGI (NCI-H522 lung) was 29.2 µM and the TGI (A498 renal) was 37 µM. The TGI (HCC-2998 colon) was 29.8 µM, the TGI (LOX IMVI melanoma) was 31.8 µM and the TGI (SK-MEL-2 melanoma) was 87.5 µM. For the same compound, the TGI (IGROV1 ovarian) was 24.4 µM, the TGI (SR leukemia) was 61.4 µM and the TGI (MALME-3M melanoma) was 80.4 µM. It also gave a TGI (NCI-H460 lung) of 83.9 µM, a TGI (SF-295 CNS) of 39.3 µM and a TGI (SNB-19 CNS) of 65 µM. It also gave a TGI (SNB-78 CNS) greater than 100 µM and a TGI (HCT-15 colon) greater than 100 µM.
`COc1cc([C@@H]2c3cc4c(cc3[C@@H](NC(=O)c3cccc(C#N)c3)C3COC(=O)[C@@H]32)OCO4)cc(OC)c1O` (stereo partly drawn) was tested, and the TGI (OVCAR-8 ovarian) was 14.6 µM, the TGI (HCT-116 colon) was 12.7 µM and the TGI (SNB-75 CNS) was 4.85 µM. For the same compound, the TGI (KM12 colon) was 5.21 µM, the TGI (SF-539 CNS) was 1.56 µM and the TGI (CCRF-CEM leukemia) was greater than 100 µM. It also gave a TGI (SK-MEL-5 melanoma) of 13.6 µM, a TGI (HOP-92 NSCLC) of 9.89 µM and a TGI (SW-620 colon) of 17.8 µM. It also gave a TGI (UACC-257 melanoma) greater than 100 µM, a TGI (SK-MEL-28 melanoma) greater than 100 µM and a TGI (K-562 leukemia) greater than 100 µM. The TGI (NCI-H23 lung) was 0.811 µM, the TGI (A549 NSCLC) was 2.51 µM and the TGI (TK-10 renal) was 7.86 µM. For the same compound, the TGI (KM20L2 colon) was 7.53 µM, the TGI (M14 melanoma) was greater than 100 µM and the TGI (SF-268 CNS) was greater than 100 µM. It also gave a TGI (HT29 colon) of 11.5 µM, a TGI (U251 CNS) of 1.81 µM and a TGI (UACC-62 melanoma) of 2.95 µM. It also gave a TGI (DLD-1 colon) of 16.8 µM, a TGI (UO-31 renal) of 19.2 µM and a TGI (HOP-18 NSCLC) greater than 100 µM. The TGI (RPMI-8226 leukemia) was 29.4 µM, the TGI (OVCAR-3 ovarian) was 8.74 µM and the TGI (MOLT-4 leukemia) was 33 µM. For the same compound, the TGI (LXFL 529 NSCLC) was greater than 100 µM, the TGI (OVCAR-5 ovarian) was 25.5 µM and the TGI (RXF 393 renal) was 45.5 µM. It also gave a TGI (COLO 205 colon) greater than 100 µM, a TGI (786-0 renal) greater than 100 µM and a TGI (HL-60(TB) leukemia) of 12.3 µM. The TGI (SN12C renal) was 1.81 µM, the TGI (NCI-H226 lung) was 0.67 µM and the TGI (EKVX NSCLC) was 7.49 µM. The TGI (RXF-631 renal) was 14.6 µM, the TGI (OVCAR-4 ovarian) was greater than 100 µM and the TGI (CAKI-1 renal) was 16.3 µM. The TGI (ACHN renal) was 1.98 µM, the TGI (NCI-H522 lung) was 3.16 µM and the TGI (A498 renal) was 4.98 µM. It also gave a TGI (HCC-2998 colon) of 6.34 µM, a TGI (LOX IMVI melanoma) of 10.5 µM and a TGI (SK-MEL-2 melanoma) of 8.83 µM. The TGI (IGROV1 ovarian) was 6.54 µM, the TGI (MALME-3M melanoma) was 5.18 µM and the TGI (NCI-H460 lung) was 2.53 µM. For the same compound, the TGI (DMS 273 small cell lung) was 13.8 µM, the TGI (SNB-19 CNS) was 8.62 µM and the TGI (SNB-78 CNS) was greater than 100 µM. It also gave a TGI (HCT-15 colon) of 24.5 µM.
